Data: patent publication US8580816B2, “Carboxylic acid derivatives having an oxazolo[5,4-b]pyridine ring” (Sanofi, priority 2011, dated 2013)

Target: T1, human Edg 1 receptor (Homo sapiens, UniProt P21453)
T1 construct: FLAG (N); expressed in transfected cells
Experiment: GTP-γ-S assay using human Edg 1 receptors (scintillation proximity assay, CHO Flp-In membrane preparation)
Type: biochemical
Conditions: test compound at 10 μM; relative to high control 10 μM S1P = 100% activation; membranes of CHO Flp-In cells overexpressing human Edg 1; triplicate
Excerpt: A) GTP-γ-S Assay Using Human Edg 1 Receptors
In order to determine the Edg 1 receptor activation by the compounds of the invention, a GTP-γ-S ((GTP-γ-S=guanosine 5′-[thio]triphosphate) assay for G-protein coupled receptor binding based on the scintillation proximity assay principle was used, employing a cell membrane preparation from a CHO Flp-In cell line which constitutively overexpresses the human Edg 1 receptor.
A membrane preparation was obtained by standard methods from the afore-described CHO Flp-In cell line constitutively overexpressing the human Edg 1 receptor. Briefly, the cryopreserved cells were taken in culture and grown until confluency in T175 cell culture flasks (Becton Dickinson, cat. no. 35 5001). Cell culture was stopped by washing with calcium-free phosphate-buffered saline (PBS; Gibco, cat. no. 14190), and cells were harvested with a rubber-policeman in 4° C. cold and calcium-free PBS supplemented with a protease inhibitor cocktail (complete protease inhibitor; Roche, cat. no. 1697498; 1 tablet per 50 ml) and subsequently centrifuged at 4° C. for 15 min at 1100×g (Heraeus Minifuge T). For cell lysis, the pellet was resuspended in a 4° C. cold hypotonic buffer consisting of 5 mM HEPES (Sigma-Aldrich, cat. no. H-0981), 1 mM EDTA (disodium salt; Merck, cat. No. 8418) supplemented with protease inhibitor cocktail (as above) in which cells were stored for another 15 min on ice. After lysis, cells were centrifuged at 4° C. for 10 min at 400×g (Heraeus Minifuge T). The pellet was disrupted in a Dounce homogenizer, diluted with the supernatant of the previous centrifugation and subsequently centrifuged at 4° C. for 10 min at 500×g (Heraeus Minifuge T) in order to separate nuclei and still intact cells from the membranes mainly present in the supernatant. The supernatant was then diluted in hypotonic buffer and centrifuged (Beckmann, Avanti J251) at approximately 18 600×g for 2 h at 4° C. After centrifugation, the membrane pellet was resuspended in a storing buffer consisting of 20 mM HEPES; 150 mM NaCl (Merck, cat. no. 6400), 1 mM EDTA (as above) supplemented with protease inhibitor cocktail (as above). […] Protein concentration of the membrane preparation was determined in a sample by means of a commercial protein assay (Bio-Rad, DC Protein Assay, cat. nos. 500-0113, 500-0114, 500-0115).
The Edg 1 membrane preparation obtained in (b) was employed in a commercially available scintillation proximity assay (SPA) kit for G-protein coupled receptor binding from Amersham Biosciences/GE Healthcare (code RPNQ0210), in which ligand-induced binding of ^35S-radiolabeled GTP-γ-S to the receptor-containing membrane, which is bound to scintillation beads, stimulates the emission of light and allows to quantify the in vitro activity of the Edg 1 agonistic compound. […]

T1 sequence (P21453 whole entry): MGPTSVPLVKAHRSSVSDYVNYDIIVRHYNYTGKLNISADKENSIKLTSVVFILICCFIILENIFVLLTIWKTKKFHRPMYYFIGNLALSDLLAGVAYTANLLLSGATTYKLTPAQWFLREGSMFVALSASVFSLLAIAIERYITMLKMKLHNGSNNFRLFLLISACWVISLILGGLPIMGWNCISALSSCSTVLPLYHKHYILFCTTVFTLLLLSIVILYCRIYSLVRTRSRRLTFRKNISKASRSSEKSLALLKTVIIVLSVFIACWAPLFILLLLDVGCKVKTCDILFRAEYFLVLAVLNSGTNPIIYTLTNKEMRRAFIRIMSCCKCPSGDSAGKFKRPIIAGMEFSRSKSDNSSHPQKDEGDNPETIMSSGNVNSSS

SMILES | Edg 1 receptor activation in percent of the activation by 10 μM S1P (% activation) [%]
Cc1cc(-c2nc3ccc(Oc4ccccc4F)nc3o2)cc(C)c1OCC(=O)O [Example 1, {4-[5-(2-Fluorophenoxy)oxazolo[5,4-b]pyridin-2-yl]-2,6-dimethylphenoxy}acetic acid] | 74
Cc1cc(-c2nc3ccc(Oc4ccccc4F)nc3o2)cc(C)c1OC(C)C(=O)O (stereo not shown) [Example 2, 2-{4-[5-(2-Fluorophenoxy)oxazolo[5,4-b]pyridin-2-yl]-2,6-dimethylphenoxy}propionic acid] | 51
Cc1cc(-c2nc3ccc(Oc4ccccc4F)nc3o2)cc(C)c1OC(C)(C)C(=O)O [Example 3, 2-{4-[5-(2-Fluorophenoxy)oxazolo[5,4-b]pyridin-2-yl]-2,6-dimethylphenoxy}-2-methylpropionic acid] | 39
Cc1cc(-c2nc3ccc(Oc4ccccc4F)nc3o2)cc(C)c1OCC(C)(C)C(=O)O [Example 4, 3-{4-[5-(2-Fluorophenoxy)oxazolo[5,4-b]pyridin-2-yl]-2,6-dimethylphenoxy}-2,2-dimethylpropionic acid] | 86
